# Source: patent US20100055078A1, “METHODS OF MAKING A TRANSPLANTABLE BONE REPAIR SYSTEM USING MULTIPOTENT STEM CELLS” (The Government of the U.S.A, as represented by the …, priority 2008, published 2010)
# Entries after “also recorded” stand apart in the source; their conditions may differ.
# Columns and labels:
# Format in all cases: cell-based
# MC3T3-E1 cells [1] = experiment: Cell growth on pre-treated nylon ribbons; settings: up to 4 days, 0.1 mg/ml fibrinogen, HAHp, 50 ng/ml FGF-2
# Experimental: Growth on Nylon Ribbons: 250,000 MC3T3-E1 osteoblast cells were seeded in 12-well plates containing 1 inch by 1 inch nylon ribbons pre-treated with 0.1 mg/ml fibrinogen or 1 mg/ml HA and 3 mg/ml heparin (HAHp) with or without 50 ng/ml FGF-2. Cells were visualized under 10× objective at 1 and 4 days after seeding.
# MC3T3-E1 osteoblasts = experiment: [3H]-thymidine incorporation into DNA in wounded mineralized cell layers (in vitro fracture model); settings: for increase of thymidine incorporation: wounded MC3T3-E1, 24 hour treatment, FGF-2 0.2 ng/ml, TGFβ 2 ng/ml, PGE2; for change in DNA synthesis (thymidine incorporation), in words: wounded MC3T3-E1, within twenty-four hours of treatment
# Experimental: (§1) Cell culture: Cloned MC3T3-E1 osteoblasts (Kodama et al., J. Cell. Physiol. 112:89-95, 1992) were maintained in alpha MEM medium (Catalog No. MT15012CV Fisher Scientific, Pittsburgh, Pa.) containing 10% fetal bovine serum (FBS), 1% antibiotic solution and 1% glutamine solution and subcultured every 3 to 4 days. The cells were subcultured by incubating with trypsin for five minutes and resuspending at a concentration of 3×10^5 cells/ml. For experiments, cells were grown in the same medium as above, using multiwell plates (35 mm for microscopy and 22 mm for thymidine uptake studies). Each well contained a round 12 mm glass cover slip. Cultures for microscopy contained a 22 mm diameter coverslip with a 12 mm coverslip on top. After three days, the cells reached confluence and differentiation medium (DM) was added. DM was alpha MEM medium containing 10% FBS, 1% antibiotic solution and 1% glutamine solution, supplemented with ascorbic acid (50 μg/ml) and β-glycerol phosphate (10 mM) to induce mineralization. The cultures were then incubated for 9 more days. Microscopic examination was done at this time, using Von Kossa stain to confirm mineralization of the cultures. A critical defect in the mineralized cell layers was created by removing the 12 mm coverslips under sterile conditions and then incubating the cultures for an additional 24 hours in DM containing 4% FBS with IGF-1 (20 ng/ml), FGF-2 (0.2 ng/ml), PDGF (3 ng/ml), TGFβ (2 ng/ml) or PGE2 (2 μg/ml). At least triplicate independent biological samples in multiple experiments were carried out for data collection.
# Tritiated thymidine incorporation into DNA: At the conclusion of the 24 hour incubation, the culture medium was removed and the cells were incubated for 15 minutes at 37° C. in 1 ml PBS containing tritiated thymidine (4 μCi/ml). Following this incubation, the PBS was removed and the cells washed 3 times with ice cold trichloroacetic acid (TCA) followed by ice cold ethanol and allowed to air dry. Then 1 ml of sarkosyl lysis buffer ([…] containing 1% sarkosyl) was added to each well; all the cells were solubilized after 30 minutes. Finally, after mixing the resulting solution with a pipette, radioactivity was counted in a scintillation counter and protein content was measured. The data was calculated and expressed as disintegrations per minute per microgram protein.
# MC3T3-E1 cell monolayers = experiment: Cell re-growth and migration into the coverslip defect, rhodamine phalloidin microscopy; settings: for re-growth of cells into the defect, in words / relative migration: 24 hours after injury; for pattern of re-growth and cell morphology in the defect, in words: FGF-2 0.2 ng/ml, PGE2 10 μg/ml; for relative migration: from wound site to migrating edge
# Experimental: as §1, with “([…]).” for “(2 ng/ml) or PGE2 (2 μg/ml).”
# Microscopy: At the conclusion of the 24 hour incubation, the remaining 22 mm coverslip containing the regenerating area of the culture was removed. The specimen was rinsed five times in room temperature phosphate buffered saline (PBS) and fixed. Cells were visualized with the F-actin probe rhodamine phalloidin (Invitrogen, Carlsbad, Calif.). After rinsing in distilled water and air drying the samples, the coverslips were mounted on microscope slides using FLUOROMOUNT™ and the cells were examined and photographed. Photomicrographs were made on a Zeiss Axioskop epi-fluorescent microscope using a 40× objective. Migration was measured on the photomicrographs from the site of the wound to the migrating edge using a metric ruler (n=3) for each measurement.
# [2] = tested on: Wounded Mineralized MC3T3-E1 Cells; experiment: Total protein content of wounded mineralized cultures (Bio-Rad DC protein assay); settings: normalized to the control culture; 24 hours of treatment
# Experimental: as §1
# Protein assay: Protein concentration was determined by Bio-Rad DC™ protein assay (Bio-Rad, Hercules, Calif.) according to the manufacturer's protocol.
# MC3T3-E1 cells [3] = experiment: qRT-PCR gene expression in mineralizing cells treated with growth factor
# Experimental: Cell Culture: MC3T3-E1 cells were grown and mineralized essentially as described in Example 1.
# RNA Isolation: RNA was isolated using the RNeasy™ Mini kit (Qiagen, Valencia, Calif.) or TriReagent™ (Sigma-Aldrich, St. Louis, Mo.) according to the manufacturer's protocol.
# Reverse Transcription: 1.5 μg of RNA was added to 30 μl reverse transcriptase (RT) reaction buffer containing 5 mM MgCl2, 10 mM Tris-HCl (pH 8.3), 50 mM KCl, 1 mM dNTPs, 2.5 μM oligo d(T) primer, 2.5 U/μl of MuLV RT, and 1 U/μl of RNase inhibitor. The RT reaction was incubated at room temperature for 10 min, 42° C. for 30 min, inactivated at 99° C. for 5 min, and cooled at 5° C. for 5 min.
# Real-time Quantitative RT-PCR Reaction (qRT-PCR): 2 μl of cDNA from the RT reaction was added to 20 μl real-time quantitative polymerase chain reaction (qRT-PCR) mixture containing 10 μl of 2×SYBR® Green PCR Master Mix (Applied Biosystems, Foster City, Calif.) and 12 pmol oligonucleotide primers. PCR was carried out in a Bio-Rad MY iQ® Single-Color Real-Time PCR Detection System (Bio-Rad, Hercules, Calif.) at 50° C. for 2 min, 95° C. for 10 min to activate the Taq polymerase, followed by 50 amplification cycles, consisting of denaturation at 95° C. for 1 min 40 sec, annealing at 63° C. for 1 min 10 sec, and elongation at 72° C. for 1 min 40 sec. Fluorescence was measured and used for quantitative purposes. At the end of the amplification period, melting curve analysis was performed to confirm the specificity of the amplicon. RNA samples were normalized to a cyclophilin (CPHI) internal standard. Relative quantification of gene expression was calculated by using the 2^−(Ct gene T−Ct CPHI T)−(Ct gene 0 hr−Ct CPHI 0 hr) equation, where “Ct gene T” represents the calculated threshold cycle (Ct) of a time point of each sample other than 0 hr, or each treatment other than control. Relative gene abundance is calculated using 2^(Ct gene T−Ct CPHI T), resulting numbers were then multiplied by 10,000 for better graphical presentation. Primer sequences were previously described (Hughes-Fulford and Gilbertson, FASEB J. 13:S121-127, 1999; Hughes-Fulford et al., Gravit. Space Biol. Bull. 11:51-60, 1998; Tjandrawinata and Hughes-Fulford, Adv. Exp. Med. Biol. 407:163-170, 1997; Hughes-Fulford, Adv. Exp. Med. Biol. 400A:269-278, 1997; Hughes-Fulford and Lewis, Exp. Cell Res. 224:103-109, 1996). All data derived using qRT-PCR was from multiple experiments with triplicate independent biological samples.
# human MSCs = experiment: Cell migration and growth in the center of a pre-treated collagen sponge; design: key to Cell Growth in Sponge: One positive (+) indicates low cell number visible in the field; two positives (++) indicates a thin layer of cells visible in the field; three positives (+++) indicates many cells visible in the field
# [4] = tested on: human mesenchymal stem cells (hMSC); experiment: Proliferation of mesenchymal stem cells, CyQuant relative cell number; settings: of treatment
# Experimental: Mesenchymal stem cells were isolated from bone marrow by adding 50 μl ROSETTESEP® human mesenchymal stem cell enrichment cocktail (StemCell Technologies, Vancouver, BC, Canada) to each ml of bone marrow. The mixture was incubated for 20 minutes at room temperature and then diluted 2× with PBS containing 2% FBS and 1 mM EDTA. The diluted sample was layered on FICOLL-PAQUE™ (StemCell Technologies, Vancouver, BC, Canada) and centrifuged at 300×g for 25 minutes. Enriched MSCs were removed from the FICOLL-PAQUE™:plasma interface, washed with PBS containing 2% FBS and 1 mM EDTA, and resuspended in αMEM culture medium.
# Isolated MSCs were seeded to 96-well plates. […] 2,000 cells per well were seeded on 96-well plates. […] Relative cell number was obtained with a CYQUANT® Cell Proliferation kit (Invitrogen, Carlsbad, Calif.) according to the manufacturer's protocol.
# MC3T3-E1 cells [5] = experiment: Cell proliferation on ECM protein coated wells with FGF-2, CyQuant; settings: wells containing ECM proteins and FGF-2
# Experimental: Cell Proliferation: Five-hundred MC3T3-E1 osteoblast like cells were plated on a 96 well plate with ECM proteins coated on the bottom of the well. Sextuplet independent samples with and without FGF-2 were each plated in wells and 500 MC3T3-E1 cells were then adhered and grown for 3 days. Cell number was measured using CyQuant assay kit. Medium was changed daily
# [6] = 24 hours, FGF-2 5 ng/ml or BMP-2 100 ng/ml, corrected to cyclophilin
molecule,measurement,setting,value
fibrinogen,"cell growth on nylon ribbon, in words",MC3T3-E1 cells [1],Little or no cell proliferation
fibroblast growth factor-2 [FGF-2],increase of thymidine incorporation,MC3T3-E1 osteoblasts,more than 4.5 fold
same,"change in DNA synthesis (thymidine incorporation), in words",MC3T3-E1 osteoblasts,significantly enhanced
same,"re-growth of cells into the defect, in words",MC3T3-E1 cell monolayers,showed cellular proliferation at the interface of the mature cultures and the defect
same,"pattern of re-growth and cell morphology in the defect, in words",MC3T3-E1 cell monolayers,rapid coverage of the defect void
same,relative migration,MC3T3-E1 cell monolayers,5.4±0.5 mm
same,Total Protein/Culture,[2],1.49
same,"cell growth on nylon ribbon, in words",MC3T3-E1 cells [1],Little or no cell proliferation
same,Relative abundance of gene expression: ALP,MC3T3-E1 cells [3]; [6],13.39
same,Relative abundance of gene expression: BMP-2,MC3T3-E1 cells [3]; [6],**0.06
same,Relative abundance of gene expression: Collagen Type I,MC3T3-E1 cells [3]; [6],**678.21
same,Relative abundance of gene expression: Fibronectin,MC3T3-E1 cells [3]; [6],*28432.19
same,Relative abundance of gene expression: IGF-1,MC3T3-E1 cells [3]; [6],**50.65
same,Relative abundance of gene expression: MMP3,MC3T3-E1 cells [3]; [6],**4.04
same,Relative abundance of gene expression: Noggin,MC3T3-E1 cells [3]; [6],*1.61
same,Relative abundance of gene expression: OC,MC3T3-E1 cells [3]; [6],**1.38
same,Relative abundance of gene expression: RUNX2,MC3T3-E1 cells [3]; [6],**674.95
same,Relative abundance of gene expression: TGFβ,MC3T3-E1 cells [3]; [6],**245.40
same,Relative abundance of gene expression: VEGFA,MC3T3-E1 cells [3]; [6],**5132.66
same,"expression of genes associated with mineralization (col1a1, fn, bmp-2, oc, runx2, noggin), in words",MC3T3-E1 cells [3]; over 24 hours,significantly decreased; also recorded: significantly suppressed
same,"expression of igf-1, in words",MC3T3-E1 cells [3]; over 24 hours,significantly decreased
same,"expression of egr-1, fgf-2, cox-2, tgfβ, mmp3, vegfA and vegfr1, in words",MC3T3-E1 cells [3]; over a 24 hour period,dramatically induced
same,Cell Growth in Sponge,"human MSCs; center of collagen sponge, after four days, 100 ng/ml FGF-2, 0.1 mg/ml fibrinogen, HAHp 0.3% w/w heparin with 1% hyaluronic acid",+
same,"cells observed in the collagen sponge, in words",human MSCs; pre-treated collagen sponge,Some cells were observed
same,optimum dose for proliferation,[4],2.5 to 5 ng/mL
fibronectin,"MC3T3-E1 cell proliferation, in words",MC3T3-E1 cells [5],significantly increased
platelet-derived growth factor [PDGF],"change in DNA synthesis (thymidine incorporation), in words",MC3T3-E1 osteoblasts,small and unremarkable changes
same,"re-growth of cells into the defect, in words",MC3T3-E1 cell monolayers,little and unremarkable re-growth
same,Total Protein/Culture,[2],1.38
"CCCCC[C@H](O)/C=C/[C@H]1[C@H](O)CC(=O)[C@@H]1C/C=C\CCCC(=O)O [PGE2, prostaglandin E2, reference compound]",increase of thymidine incorporation,MC3T3-E1 osteoblasts,> 3.3 fold
same,"change in DNA synthesis (thymidine incorporation), in words",MC3T3-E1 osteoblasts,significantly enhanced
same,"re-growth of cells into the defect, in words",MC3T3-E1 cell monolayers,showed cellular proliferation at the interface of the mature cultures and the defect
same,"pattern of re-growth and cell morphology in the defect, in words",MC3T3-E1 cell monolayers,more linear pattern and formed multiple elongated pseudopodia
same,relative migration,MC3T3-E1 cell monolayers,3.2±0.2 mm
same,Total Protein/Culture,[2],1.51
insulin-like growth factor-1 [IGF-1],"change in DNA synthesis (thymidine incorporation), in words",MC3T3-E1 osteoblasts,small and unremarkable changes
same,"re-growth of cells into the defect, in words",MC3T3-E1 cell monolayers,little and unremarkable re-growth
same,Total Protein/Culture,[2],1.19
transforming growth factor β [TGFβ],increase of thymidine incorporation,MC3T3-E1 osteoblasts,more than 2 fold
same,"change in DNA synthesis (thymidine incorporation), in words",MC3T3-E1 osteoblasts,significantly enhanced
same,"re-growth of cells into the defect, in words",MC3T3-E1 cell monolayers,showed cellular proliferation at the interface of the mature cultures and the defect
same,relative migration,MC3T3-E1 cell monolayers,1.8±0.4 mm
same,Total Protein/Culture,[2],1.55
